Source: PubChem BioAssay (NCI)
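At the GI50, growth is halved. At the TGI there is no net growth.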

Columns and labels:
Assay in all cases: NCI anticancer screen, dose series, 384-well format
SK-MEL-28 melanoma = system: SK-MEL-28 melanoma
HCT-15 colon = system: HCT-15 colon
SK-MEL-5 melanoma = system: SK-MEL-5 melanoma
SK-OV-3 ovarian = system: SK-OV-3 ovarian
UACC-62 melanoma = system: UACC-62 melanoma
SNB-19 CNS = system: SNB-19 CNS
MDA-MB-231 breast = system: MDA-MB-231 breast
NCI-H460 NSCLC = system: NCI-H460 NSCLC
TK-10 renal = system: TK-10 renal
RXF 393 renal = system: RXF 393 renal
OVCAR-3 ovarian = system: OVCAR-3 ovarian
NCI-H522 lung = system: NCI-H522 lung
HOP-62 NSCLC = system: HOP-62 NSCLC
OVCAR-8 ovarian = system: OVCAR-8 ovarian
SF-295 CNS = system: SF-295 CNS
MOLT-4 leukemia = system: MOLT-4 leukemia
A498 renal = system: A498 renal
K-562 leukemia = system: K-562 leukemia
DU-145 prostate = system: DU-145 prostate
MALME-3M melanoma = system: MALME-3M melanoma
HT29 colon = system: HT29 colon
HOP-92 NSCLC = system: HOP-92 NSCLC
MDA-MB-468 breast = system: MDA-MB-468 breast
MDA-MB-435 melanoma = system: MDA-MB-435 melanoma
T-47D breast = system: T-47D breast
ACHN renal = system: ACHN renal
SK-MEL-2 melanoma = system: SK-MEL-2 melanoma
IGROV1 ovarian = system: IGROV1 ovarian
NCI-H322M lung = system: NCI-H322M lung
SW-620 colon = system: SW-620 colon
NCI-H23 lung = system: NCI-H23 lung
HCC-2998 colon = system: HCC-2998 colon
SR leukemia = system: SR leukemia
CCRF-CEM leukemia = system: CCRF-CEM leukemia
LOX IMVI melanoma = system: LOX IMVI melanoma
OVCAR-5 ovarian = system: OVCAR-5 ovarian
UO-31 renal = system: UO-31 renal
HL-60(TB) leukemia = system: HL-60(TB) leukemia
UACC-257 melanoma = system: UACC-257 melanoma
KM12 colon = system: KM12 colon
SF-539 CNS = system: SF-539 CNS
M14 melanoma = system: M14 melanoma
MCF7 breast = system: MCF7 breast
COLO 205 colon = system: COLO 205 colon
OVCAR-4 ovarian = system: OVCAR-4 ovarian
HCT-116 colon = system: HCT-116 colon
CAKI-1 renal = system: CAKI-1 renal
SN12C renal = system: SN12C renal
A549 NSCLC = system: A549 NSCLC
RPMI-8226 leukemia = system: RPMI-8226 leukemia
PC-3 prostate = system: PC-3 prostate
NCI-H226 lung = system: NCI-H226 lung
BT-549 breast = system: BT-549 breast
NCI/ADR-RES ovarian = system: NCI/ADR-RES ovarian
786-0 renal = system: 786-0 renal
U251 glioblastoma = system: U251 glioblastoma
SF-268 CNS = system: SF-268 CNS

COc1ccccc1-c1nccc(COc2ccccc2C[C@@H](Oc2ncnc3sc(-c4ccc(F)cc4)c(-c4ccc(OCCN5CCN(C)CC5)c(Cl)c4C)c23)C(=O)O)n1
GI50 (SK-MEL-28 melanoma): 1.42 µM | TGI (SK-MEL-28 melanoma): 2.73 µM | GI50 (HCT-15 colon): 5.29 µM | TGI (HCT-15 colon): 16.2 µM | GI50 (SK-MEL-5 melanoma): 1.47 µM | TGI (SK-MEL-5 melanoma): 2.8 µM | GI50 (SK-OV-3 ovarian): 2.95 µM | TGI (SK-OV-3 ovarian): 9.17 µM | GI50 (UACC-62 melanoma): 0.0206 µM | TGI (UACC-62 melanoma): 0.057 µM | GI50 (SNB-19 CNS): 1.87 µM | TGI (SNB-19 CNS): 3.36 µM | GI50 (MDA-MB-231 breast): 1.57 µM | TGI (MDA-MB-231 breast): 2.96 µM | GI50 (NCI-H460 NSCLC): 1.33 µM | TGI (NCI-H460 NSCLC): 3.54 µM | GI50 (TK-10 renal): 2.38 µM | TGI (TK-10 renal): 5.65 µM | GI50 (RXF 393 renal): 0.0786 µM | TGI (RXF 393 renal): 1.04 µM | GI50 (OVCAR-3 ovarian): 1.85 µM | TGI (OVCAR-3 ovarian): 3.27 µM | GI50 (NCI-H522 lung): < 0.01 µM | TGI (NCI-H522 lung): 0.0959 µM | GI50 (HOP-62 NSCLC): 1.71 µM | TGI (HOP-62 NSCLC): 3.27 µM | GI50 (OVCAR-8 ovarian): 1.77 µM | TGI (OVCAR-8 ovarian): 3.24 µM | GI50 (SF-295 CNS): 1.4 µM | TGI (SF-295 CNS): 2.72 µM | GI50 (MOLT-4 leukemia): < 0.01 µM | TGI (MOLT-4 leukemia): 0.0177 µM | GI50 (A498 renal): 2.26 µM | TGI (A498 renal): 5.43 µM | GI50 (K-562 leukemia): 1.93 µM | TGI (K-562 leukemia): 3.48 µM | GI50 (DU-145 prostate): 2.13 µM | TGI (DU-145 prostate): 4.58 µM | GI50 (MALME-3M melanoma): 1.08 µM | TGI (MALME-3M melanoma): 2.29 µM | GI50 (HT29 colon): 1.83 µM | TGI (HT29 colon): 3.33 µM | GI50 (HOP-92 NSCLC): 1.72 µM | TGI (HOP-92 NSCLC): 3.1 µM | GI50 (MDA-MB-468 breast): 0.0109 µM | TGI (MDA-MB-468 breast): 0.054 µM | GI50 (MDA-MB-435 melanoma): 0.391 µM | TGI (MDA-MB-435 melanoma): 1.6 µM | GI50 (T-47D breast): 1.58 µM | TGI (T-47D breast): 3.43 µM | GI50 (ACHN renal): 4.57 µM | TGI (ACHN renal): 14.8 µM | GI50 (SK-MEL-2 melanoma): < 0.01 µM | TGI (SK-MEL-2 melanoma): < 0.01 µM | GI50 (IGROV1 ovarian): 1.66 µM | TGI (IGROV1 ovarian): 3.09 µM | GI50 (NCI-H322M lung): 1.91 µM | TGI (NCI-H322M lung): 3.72 µM | GI50 (SW-620 colon): 1.88 µM | TGI (SW-620 colon): 3.36 µM | GI50 (NCI-H23 lung): 0.0453 µM | TGI (NCI-H23 lung): 0.38 µM | GI50 (HCC-2998 colon): 1.19 µM | TGI (HCC-2998 colon): 2.52 µM | GI50 (SR leukemia): < 0.01 µM | TGI (SR leukemia): < 0.01 µM | GI50 (CCRF-CEM leukemia): 0.0296 µM | TGI (CCRF-CEM leukemia): 0.801 µM | GI50 (LOX IMVI melanoma): 1.98 µM | TGI (LOX IMVI melanoma): 3.42 µM | GI50 (OVCAR-5 ovarian): 2.73 µM | TGI (OVCAR-5 ovarian): 6.27 µM | GI50 (UO-31 renal): 4.23 µM | TGI (UO-31 renal): 14.2 µM | GI50 (HL-60(TB) leukemia): < 0.01 µM | TGI (HL-60(TB) leukemia): < 0.01 µM | GI50 (UACC-257 melanoma): 1.7 µM | TGI (UACC-257 melanoma): 3.4 µM | GI50 (KM12 colon): 1.73 µM | TGI (KM12 colon): 3.14 µM | GI50 (SF-539 CNS): 1.2 µM | TGI (SF-539 CNS): 2.47 µM | GI50 (M14 melanoma): 1.54 µM | TGI (M14 melanoma): 2.89 µM | GI50 (MCF7 breast): 0.0462 µM | TGI (MCF7 breast): 1.04 µM | GI50 (COLO 205 colon): 1.82 µM | TGI (COLO 205 colon): 3.54 µM | GI50 (OVCAR-4 ovarian): 0.163 µM | TGI (OVCAR-4 ovarian): 3.11 µM | GI50 (HCT-116 colon): 1.94 µM | TGI (HCT-116 colon): 3.53 µM | GI50 (CAKI-1 renal): 2.75 µM | TGI (CAKI-1 renal): 6.51 µM | GI50 (SN12C renal): 1.52 µM | TGI (SN12C renal): 2.9 µM | GI50 (A549 NSCLC): 10.6 µM | TGI (A549 NSCLC): 22.5 µM | GI50 (RPMI-8226 leukemia): < 0.01 µM | TGI (RPMI-8226 leukemia): < 0.01 µM | GI50 (PC-3 prostate): 1.82 µM | TGI (PC-3 prostate): 3.24 µM | GI50 (NCI-H226 lung): 2.04 µM | TGI (NCI-H226 lung): 3.64 µM | GI50 (BT-549 breast): 1.27 µM | TGI (BT-549 breast): 2.55 µM | GI50 (NCI/ADR-RES ovarian): 26.8 µM | TGI (NCI/ADR-RES ovarian): > 100 µM | GI50 ([…]-0 renal): 1.78 µM | TGI (786-0 renal): 3.21 µM | GI50 (U251 glioblastoma): 1.81 µM | TGI (U251 glioblastoma): 3.37 µM | GI50 (SF-268 CNS): 1.57 µM | TGI (SF-268 CNS): 2.93 µM
